One block for each molecule: values may come before it.
Tests used:
[1] = Stability test experiment A: suspended and stirred in water, XRPD; format: physicochemical; conditions: for Crystal form (XRPD) after stirring in water: suspended and stirred in water at room temperature for 24 h
Procedure: At room temperature, the test samples (50 mg) were added into EP tubes, water (1 mL) was added respectively. The mixture was suspended and stirred at room temperature for 24 h, then suction filtered, and dried for X-ray powder diffraction (XRPD) analysis and identification. Among them, the experimental results of phosphate crystal form A, phosphate crystal form B, phosphate crystal form C, phosphate crystal form G and phosphate crystal form H are shown in FIGS. 20-24.

[2] = Pharmacokinetics test in Beagle dogs, oral capsules; format: in vivo; conditions: male Beagle dogs, oral capsule, 5 mg/kg
Procedure: The test samples were filled into capsules for oral administration.
Three 8-12 kg male Beagle dogs were taken orally administered capsules containing the test sample at a dose of 5 mg/kg, and blood was collected at time points of 0.25, 0.5, 1.0, 2.0, 4.0, 6.0, 8.0 and 24 h. Standard curve was plotted based on concentrations of the samples in a suitable range, the concentration of the test sample in the plasma sample was measured and quantified by AB SCIEX API4000 LC-MS / MS at MRM mode. Pharmacokinetic parameters were calculated according to drug concentration -time curve using a noncompartmental method by WinNonLin 6.3 software.

Hygroscopicity test = format: physicochemical; conditions: 25° C. ± 1° C., RH 80% ± 2%, 24 hours
Procedure: 1) A dry stoppered glass weighing bottle was placed in a suitable constant temperature desiccator (RH 80% ± 2%) at 25° C. + 1° C. the day before, and accurately weighed (m1).
2) An appropriate amount of the test sample was taken and spread in the above weighing bottle. The thickness of the test sample was generally about 1 mm, and it was precisely weighed (m2).
3) The weighing bottle was opened and placed together with the bottle cap under the above constant temperature and humidity conditions for 24 hours.
4) The weighing bottle was closed with the bottle cap, and accurately weighed (m3). Calculate: weight gain % = (m3-m2) / (m2-m1) × 100%.
5) Judgment of hygroscopicity results (Chinese Pharmacopoeia 2015 Edition Appendix 9103 Guidelines for the hygroscopicity test of drugs, experimental conditions: 25° C.±1° C., 80%±2% relative humidity): […]

[3] = Stability test experiment B: high temperature, high humidity and light tests; format: physicochemical; conditions: for Purity: HPLC
Procedure: (§1) (1) High temperature test: the test samples were taken into the flat weighing bottle, spread into a thin layer of ≤ 5 mm thick, and stored for 30 days at a humidity of 75% ± 5%, 40° C. ± 2° C. and/or 60° C. ± 2° C. On the 5th, 10th, and 30th days, samples were taken for detection according to the key stability inspection items: the color change of the sample was observed, the purity of the sample was determined by HPLC, and the crystal structure of the sample was determined by XRPD.
as §1, with “(2)” for “(1)”, “humidity” for “temperature”, “25° C., RH 90% ± 5% and/or RH” for “a humidity of”, “5%.” for “5%, 40° C. ± 2° C. and/or 60° C. ± 2° C.”
(3) Light test: the test samples were taken into the flat weighing bottle, spread into a thin layer of ≤ 5 mm thick, and placed in a light box (with an ultraviolet lamp) with an open mouth. The test samples were stored under the condition of illuminance of 4500 ± 5001x and ultraviolet light ≥ 0.7w/m^2 for 30 days. Samples were taken on the 5th, 10th and 30th days. The color change of the sample was observed, the purity of the sample was determined by HPLC, and the crystal structure of the sample was determined by XRPD.

[4] = Stability test experiment C: storage in PE bag and aluminum foil; format: physicochemical; conditions: for Purity: HPLC
Procedure: 1.0 g of the test samples were packaged in a single-layer PE bag and aluminum foil, and fasten with cable ties. 6 packs were prepared in total and put in a stable box (40° C. ± 2° C., RH 75% ± 5%, or 25° C. ± 2° C., RH 60% ± 10%). Test samples were taken at 0, 3, and 6 months for HPLC and XRPD detection, respectively.

[5] = High humidity (25° C., RH 90% ± 5%), 5 days
[6] = High humidity (25° C., RH 90% ± 5%), 10 days
[7] = High humidity (25° C., RH 90% ± 5%), 30 days
[8] = High temperature (60° C., RH 75%±5%), 5 days
[9] = High temperature (60° C., RH 75%±5%), 10 days
[10] = High temperature (60° C., RH 75%±5%), 30 days
[11] = 25° C. ± 2° C., RH 60% ±10%, 3 months
[12] = 25° C. ± 2° C., RH 60% ±10%, 6 months
[13] = 40° C. ± 2° C., RH 75% ±5%, 3 months
[14] = 40° C. ± 2° C., RH 75% ±5%, 6 months

Structure (SMILES): Cc1nc(-c2cnc(N3CCN(CCCc4c[nH]c5ccc(C#N)cc45)CC3)nc2)sc1C(N)=O [Example 3, 2-(2-(4-(3-(5-cyano-1H-indol-3-yl)propyl)piperazin-1-yl)pyrimidin-5-yl)-4-methylthiazol-5-carboxamide]
Crystal form (XRPD) after stirring in water ([1]; listed as phosphate crystal form B): crystal form changed

Structure (SMILES): Cc1nc(-c2cnc(N3CCN(CCCc4c[nH]c5ccc(C#N)cc45)CC3)nc2)sc1C(N)=O [Example 4, 2-(2-(4-(3-(5-cyano-1H-indol-3-yl)propyl)piperazin-1-yl)pyrimidin-5-yl)-4-methylthiazol-5-carboxamide]
Crystal form (XRPD) after stirring in water ([1]; listed as phosphate crystal form C): crystal form changed

Structure (SMILES): Cc1nc(-c2cnc(N3CCN(CCCc4c[nH]c5ccc(C#N)cc45)CC3)nc2)sc1C(N)=O [Example 2, 2-(2-(4-(3-(5-cyano-1H-indol-3-yl)propyl)piperazin-1-yl)pyrimidin-5-yl)-4-methylthiazol-5-carboxamide]
Cmax ([2]; dog, plasma): 496 ng/mL
Tmax ([2]; dog, plasma): 1.67 h
AUClast [2]: 5240 h^∗ng/ml
Crystal structure after stirring in water ([1]; stirred in water at room temperature or under heating conditions): does not change
Crystal form (XRPD) after stirring in water ([1]; listed as phosphate crystal form A): crystal form did not change
Conclusion (hygroscopicity feature) (Hygroscopicity test): Slightly hygroscopicity (Less than 2% but not less than 0.2%)
The hygroscopicity gain (Hygroscopicity test): 0.32%
Outward ([3]; 0 day): Light yellow solid
Purity ([3]; 0 day): 99.24%
Outward [3, 5]: Light yellow solid
Purity [3, 5]: 99.27%
Outward [3, 6]: Light yellow solid
Purity [3, 6]: 99.21%
Outward [3, 7]: Light yellow solid
Purity [3, 7]: 99.22%
Outward [3, 8]: Light yellow solid
Purity [3, 8]: 99.26%
Outward [3, 9]: Light yellow solid
Purity [3, 9]: 99.23%
Outward [3, 10]: Light yellow solid
Purity [3, 10]: 99.24%
Outward ([3]; Light, 5 days): Yellow solid
Purity ([3]; Light, 5 days): 99.25%
Outward ([3]; Light, 10 days): Yellow solid
Purity ([3]; Light, 10 days): 99.21%
Outward ([3]; Light, 30 days): Yellow solid
Purity ([3]; Light, 30 days): 99.10%
XRPD pattern ([3]; high temperature (60° C., RH 75% ± 5%), high humidity (25° C., RH 90% ± 5%) or light, 30 days): basically unchanged
Outward ([4]; 0 month): Light yellow solid
Purity ([4]; 0 month): 99.62%
Outward [4, 11]: Light yellow solid
Purity [4, 11]: 99.63%
Outward [4, 12]: Light yellow solid
Purity [4, 12]: 99.64%
Outward [4, 13]: Light yellow solid
Purity [4, 13]: 99.63%
Outward [4, 14]: Light yellow solid
Purity [4, 14]: 99.64%
Crystal structure (XRPD) ([4]; stored up to 6 months at 40° C./RH 75% or 25° C./RH 60% in PE bag and aluminum foil): have not changed

Next, values leading:

Crystal form (XRPD) after stirring in water ([1]; listed as phosphate crystal form H): crystal form changed
Structure (SMILES): Cc1nc(-c2cnc(N3CCN(CCCc4c[nH]c5ccc(C#N)cc45)CC3)nc2)sc1C(N)=O [Example 6, 2-(2-(4-(3-(5-cyano-1H-indol-3-yl)propyl)piperazin-1-yl)pyrimidin-5-yl)-4-methylthiazol-5-carboxamide]

Crystal form (XRPD) after stirring in water ([1]; listed as phosphate crystal form G): crystal form changed
Structure (SMILES): Cc1nc(-c2cnc(N3CCN(CCCc4c[nH]c5ccc(C#N)cc45)CC3)nc2)sc1C(N)=O [Example 5, 2-(2-(4-(3-(5-cyano-1H-indol-3-yl)propyl)piperazin-1-yl)pyrimidin-5-yl)-4-methylthiazol-5-carboxamide]

Reference: patent US20230312551A1, “SALT OF 2-(SUBSTITUTED PYRIMIDINYL) THIAZOLE CARBOXAMIDE COMPOUND, AND COMPOSITION AND USE THEREOF” (SUNSHINE LAKE PHARMA CO., LTD., priority 2020, published 2023)
